The values that follow come from paper PMC4685510, “A Cell Biologist’s Field Guide to Aurora Kinase Inhibitors” (Frontiers in Oncology, 2015).

Assay [1] relates to pLATS2(Ser 83) in U2OS cells. Briefly: Substrate phosphorylation immunofluorescence assay, pLATS2(Ser 83), U2OS. Particulars: for IC50: Homo sapiens, read-out: pLATS2 (Ser83) IC50. Type of assay: cell-based, human. The protocol: (§1) We employed the protocol described in Figure 3D to analyze substrate phosphorylation in HeLa cells following treatment with all 10 inhibitors in dose–response. Asynchronous cells were incubated with vehicle (DMSO) or different inhibitor doses for 8 h and then fixed and labeled with a mixture of three antibodies directed against pLATS2(Ser 83), pH3(Ser 28), and MPM2 [which detects mitotic phosphoepitopes; ([86])]. While both the anti-pLATS2(Ser 83) and MPM2 antibodies are mouse monoclonals, they are of different IgG subclasses [IgG2b for anti-pLATS2(Ser 83) and IgG1 for MPM2], and can thus be detected with subclass-specific secondary antibodies (Table S3 in Supplementary Material).
(§2) In control mitotic cells, pLATS2(Ser 83) is concentrated in foci around the spindle poles (Figure 3E; top row – green arrow) and pH3(Ser 28) is on the mitotic chromatin (Figure 3E; top row – red arrow). Selective kinase inhibition should result in loss of one signal but not the other, as illustrated by the example images for specific conditions in Figure 3E (middle and bottom rows). Cells were imaged in 4 channels to visualize pLATS2(Ser 83), pH3(Ser 28), MPM2, and DNA (labeled with Hoechst) and mitotic cells were segmented based on their bright MPM2 labeling (Figure 3E). Intensity and area thresholds were set to select the pLATS2(Ser 83) foci and the pH3(Ser 28)-labeled chromatin in their respective channels in DMSO-treated control cells and the same thresholds were applied for inhibitor-treated cells. The mean fluorescence intensity per pixel was measured to assess the activities of the kinases targeting these two substrate phosphorylation sites.
(§3) Twelve thousand HeLa cells, 10,000 U2OS cells, or 8,000 RPE1 cells were seeded into 96-well glass-bottom Sensoplates (Greiner) 16 h before inhibitor addition. Prior to seeding, the glass-bottom plates were coated with poly-L-lysine (Sigma). […] After 8 h cells were fixed with 4% PFA for 20 min at room temperature. The fixed cells were washed with PBS. For immunostaining, cells were permeabilized and blocked with PBS containing 10% normal donkey serum (Jackson ImmunoResearch) and 0.1% Triton-X100 for 1 h at room temperature. Primary antibodies against phospho-LATS2 (Ser 83), phospho-histone H3(Ser 28), and anti-phospho-MPM2 (see Table S3 in Supplementary Material) were incubated for 1 h at room temperature. […] Cells were then washed twice with PBS containing 0.1% Triton-X100. Image acquisition in four channels was performed using a CV7000 spinning disk confocal system (Yokogawa Electric Corporation) with a 40 × 0.95 NA U-PlanApo objective and 2560 × 2160 pixel sCMOS camera. […] Fifty fields per well were imaged with quadruplicate wells for each condition. Image analysis was done using the CV7000 image analysis software (Yokogawa Electric Corporation). Between 100 and 1,000 mitotic cells per condition were segmented applying object identification parameters to select for bright MPM2 labeling. Using a nuclear identifier protocol, minimum intensity thresholds were set for pLATS2(Ser 83) and the pH3(Ser 28) signals, and the resulting identified objects were eroded, dilated, and filtered for size by user-defined thresholds. For only the MPM2-positive mitotic cells, the mean fluorescence intensity of the identified pLATS2(Ser 83) and pH3(Ser 28) objects was measured, and the average intensity per cell per well was calculated. The same thresholds were applied for all of the inhibitor-treated samples, which were processed, imaged, and analyzed in parallel with control DMSO-treated cells. Data were fit using a four-parameter, variable slope fit in Prism (GraphPad). Primary and secondary antibody dilutions can be found in Table S3 in Supplementary Material.

Another assay concerns the target Aurora B. Particulars: cited from earlier work; for IC50: read-out: Aurora B IC50 (Published).
Assay [2] concerns pLATS2(Ser 83) in HeLa cells. Briefly: Substrate phosphorylation immunofluorescence assay, pLATS2(Ser 83), HeLa. Type of assay: cell-based, human. The protocol: as §1, §2, §3
Assay [3] relates to pH3(Ser 28) in HeLa cells. Briefly: Substrate phosphorylation immunofluorescence assay, pH3(Ser 28), HeLa. Format: cell-based, human. The note with it: for pHistone H3 (Ser28) IC50: 8 h inhibitor treatment.
Method: (§4) After 8 h cells were fixed with 4% PFA for 20 min at room temperature. The fixed cells were washed with PBS. For immunostaining, cells were permeabilized and blocked with PBS containing 10% normal donkey serum (Jackson ImmunoResearch) and 0.1% Triton-X100 for 1 h at room temperature. Primary antibodies against phospho-LATS2 (Ser 83), phospho-histone H3(Ser 28), and anti-phospho-MPM2 (see Table S3 in Supplementary Material) were incubated for 1 h at room temperature. […] Cells were then washed twice with PBS containing 0.1% Triton-X100. […] Fifty fields per well were imaged with quadruplicate wells for each condition. Image analysis was done using the CV7000 image analysis software (Yokogawa Electric Corporation). Between 100 and 1,000 mitotic cells per condition were segmented applying object identification parameters to select for bright MPM2 labeling. Using a nuclear identifier protocol, minimum intensity thresholds were set for pLATS2(Ser 83) and the pH3(Ser 28) signals, and the resulting identified objects were eroded, dilated, and filtered for size by user-defined thresholds. […] The same thresholds were applied for all of the inhibitor-treated samples, which were processed, imaged, and analyzed in parallel with control DMSO-treated cells. Data were fit using a four-parameter, variable slope fit in Prism (GraphPad).
The test system of assay [4] is pLATS2(Ser 83) in RPE1 cells. Briefly: Substrate phosphorylation immunofluorescence assay, pLATS2(Ser 83), RPE1. Format: cell-based, human. The note with it: for IC50: Homo sapiens, read-out: pLATS2 (Ser83) IC50. Here is the method: as §1, §2, §3
The subject of assay [5] is pH3(Ser 28) in U2OS cells. Briefly: Substrate phosphorylation immunofluorescence assay, pH3(Ser 28), U2OS. Type of assay: cell-based, human.
Method: as §4
Assay [6] relates to pAuroraB(Thr 232), pH3(Ser 10), pH3(Ser 28) in HeLa cells. The assay can be described thus: Immunoblotting of pAuroraB(Thr 232), pH3(Ser 28) and pH3(Ser 10). Type of assay: cell-based, human. Particulars: immunoblot; for Effect on pH3(Ser 10), pH3(Ser 28), pAuroraB(Thr 232): dose–response. Background: In western blotting, separated proteins are transferred to a membrane and probed.

The subject of the next assay is RPE1 cells. Briefly: G2 duration live imaging assay (GFP-PCNA; H2B-RFP), RPE1. The note with it: Homo sapiens, RPE-1, read-out: G2/M (G2 duration) IC50. Type of assay: cell-based.
[7] abbreviates: Homo sapiens, 8 h, read-out: pHistone H3 (Ser28) IC50.

Each structure is given as a SMILES string. Entries after “also recorded” stand apart in the source; their conditions may differ. Read-outs that look alike come from different tables or passages of the source.

Turning to `CCn1cc(-c2ccnc3[nH]c(-c4cccc(CN(C)C)c4)cc23)c(-c2ccc(NC(=O)N(C)C)cc2)n1` [GSK1070916], the “pLATS2 (Ser83) IC50” value in assay [1] (8 h inhibitor treatment) is on record as “NE@200 nM”; in assay [2] (HeLa, 8 h inhibitor treatment), “NE (100 nM); also recorded: NE@100 nM”; in assay [4] (RPE1, 8 h inhibitor treatment) it was “NE@200 nM”. Besides, at Aurora B (ref 61, read-out: Aurora B-INCENP Ki (Published)), the Ki was 0.38 nM. Besides, the “Concentration completely eliminating pH3(Ser 28) labeling without affecting pLATS2(Ser 83) labeling” value in assay [3] is less than 100 nM. Moreover, the IC50 in assay [3] (setting [7]) was 6 nM; in assay [5] (setting [7]), 8 nM. For the same molecule, the “Concentration eliminating Aurora B activity without affecting pAuroraA (Thr 288)” value in assay [6] is less than 100 nM. In addition, in assay [6], the “Effect on pH3(Ser 10), pH3(Ser 28), pAuroraB(Thr 232)” value (from here on “Effect”) is “eliminated”.
As for `O=C(O)[C@]1(Cc2cccc(Nc3nccs3)n2)CC[C@@H](Oc2cccc(Cl)c2F)CC1` [MK-5108], the IC50 in assay [1] (8 h) was 1200 nM; in the assay with Aurora B (ref 56) it was 14.1 nM; in assay [2] (Homo sapiens, HeLa, 8 h, read-out: pLATS2 (Ser83) IC50, HeLa, 8 h inhibitor treatment), 600 to 800 nM; in assay [2] (read-out: pLATS2 (Ser83) IC50, HeLa, 8 h inhibitor treatment), 610 nM; in assay [4] (RPE-1, 8 h), 1800 nM; in the assay with RPE1 cells, 877 nM. Besides, in assay [3], the “pHistone H3 (Ser28) IC50” value is given as “NE (9 μM); also recorded: NE@9 μM”. Besides, the inhibition at 15 µM in assay [5] (Homo sapiens, read-out: pHistone H3 (Ser28) inhibition at highest concentration tested) was found to be 20%. For the same molecule, the “Effect” value in assay [6] was “no effect”.
Take `O=C(c1cccc(Cl)c1F)N1CCN(Cc2cccc(Nc3nccs3)n2)CC1` [MK-8745]: the IC50 in assay [1] (8 h inhibitor treatment) is 1700 nM; in the assay with Aurora B (ref 57) it was 280 nM; in assay [2] (HeLa, 8 h inhibitor treatment, read-out: pLATS2 (Ser83) IC50), 610 nM; in assay [2] (Homo sapiens, HeLa, 8 h, HeLa, 8 h inhibitor treatment, read-out: pLATS2 (Ser83) IC50), 600 to 800 nM; in assay [4] (RPE-1, RPE1, 8 h inhibitor treatment), 2300 nM; with RPE1 cells, 755 nM. Besides, the “Lowest concentration to maximally inhibit Aurora A in cells relative to lowest AZD1152-HQPA concentration to fully inhibit Aurora B” value in assay [2] (cellular assays) is more than 100 fold. In addition, the entries for the “pHistone H3 (Ser28) IC50” value in assay [3] and in assay [5] (8 h inhibitor treatment) were “NE (9 μM); also recorded: NE@9 µM” and “NE@15 µM”, respectively. The “Effect” value in assay [6] was “no effect”.

By Ki is commonly meant a measure of affinity in units of concentration, obtained from inhibition or displacement.
